Laboratory results taken from patent US20240041898A9, “NEUROSTEROIDS AND ENANTIOMERS THEREOF FOR THE PREVENTION AND TREATMENT OF NEURODEGENERATIVE CONDITIONS” (priority 2019, published 2024).
Values joined by “and” are separate entries in the source; they are usually repeats but may differ in a detail not shown here. Equal values may be shown once.

How the values were obtained:
[1] = system: primary astrocyte cultures; conditions: cited from earlier work
[2] = system: retinal ganglion cells (RGCs); assay: Ex vivo pressure-loaded whole mounted retinas, NeuN-positive RGC survival; type: cell-based, rat; conditions: 75 mmHg, 1 μM; for RGC Survival (number of NeuN-positive cells), individual areas 1-5: single values
Protocol: (§1) Rat ex vivo Eyecup Preparation—Rat ex vivo eyecups were prepared from 28-32 day old male Sprague-Dawley rats (Charles River Laboratories International Inc., Wilmington, MA). The anterior half of the enucleated eyes was carefully removed to make eyecup preparations. Eyecups were placed at the bottom of a 100 ml glass beaker filled with aCSF (artificial cerebrospinal fluid) containing (in mM): 124 NaCl, 5 KCl, 2 MgSO4, 2 CaCl2, 1.25 NaH2PO4, 22 NaHCO3, and 10 glucose, and incubated at 30° C. for 24 hours using a closed pressure-loading system (FIG. 1C). pH was maintained at 7.35 to 7.40. In the closed-pressure system, a glass beaker with the eyecup was placed at the bottom of an acrylic pressure chamber (2,000 ml volume). A 95% O2-5% CO2 gas mixture was delivered through disposable plastic tubing with an infusion valve and a control dial on the lid of the pressure chamber and an air filter (Cat #SLGP033RS, Merck Millipore, Billerica, MA). The plastic tubing delivering the gas terminated 1 cm above the bottom of the beaker.
(§2) Acutely prepared eyecups were incubated in gassed aCSF for at least 1 h at 30° C. before pressure loading. In some experiments, AlloP (1 μM), ent-AlloP (1 μM), and 3-MA (10 mM) were dissolved in aCSF at the time of experiment and administered by bath perfusion. Eyecup preparations were treated with these drugs for 1 h at 30° C. before pressure loading. For pressure loading, the 95% O2-5% CO2 gas mixture was infused until the pressure reading given by a manometer reached the appropriate level. The pressure was then locked by adjusting the control dial of the effusion valve, and monitored continuously for 24 h at 30° C.
Preparation of whole mounted retinas and immunostaining—The retina was carefully detached from the eye by making cuts along the ora serrata and optic nerve. […] Each quadrant was analyzed using a 1 mm^2 frame, and counted using Image-Pro Plus software. […] RGC counts were analyzed using Image-Pro Plus software. NeuN positive RGCs were determined as the measurement of 5 different areas from three eyes per experimental condition.

[3] = system: pressure-loaded ex vivo rat retinas; type: cell-based; conditions: 75 mmHg; for NDS (neuronal damage score) / NDS, Average: 0-4 scale; for NDS (neuronal damage score) / NFLT vs. RT (%) / Damaged cells in GCL: 24 h, mean±SD; for NDS (neuronal damage score) / NDS, Average / Damaged cells in GCL / NFLT, Average / Damaged cell, Average: neurosteroid 1 μM; for NDS, Average / NFLT, Average / Damaged cell, Average: Average of 9; for axonal swelling in the nerve fiber layer (NFL), light micrographs: 1 μM; for NFLT vs. RT (%): neurosteroid 1 μM (Picro 1 μM, 3-MA 10 mM where named); for Damaged cell, Average: GCL
Protocol: as §1, §2
Data analysis of morphometry—The middle portion of the retina was examined, greater than 1,200 μm away from the center of the optic disc along the inner limiting membrane (ILM). The nerve fiber layer thickness (NFLT) was measured by light microscopy along 5 lines perpendicular to the pigment epithelium at a distance of 15 μm from each other around 1,200 μm away from the center of the optic disc. The average NFLT was determined in 9 different light micrographs taken from 5 eyecup samples in each condition, divided by total retinal thickness, and mean±standard deviation (%) was analyzed and compared with control.
The density of degenerated cells characterized by nuclear chromatin clumping or necrosis in the GCL was determined by counting 9 fields of 500 μm length in light micrographs taken from the block of the middle retinal part 950 to 1450 μm away from the center of the optic disc.
The severity of neuronal damage was assessed by light microscopy using a neuronal damage score (NDS). The NDS was determined in 9 different light micrographs taken from 5 eyecup samples in each condition. The NDS rates neuronal damage in the inner nuclear layer (INL) and the inner plexiform layer (IPL) on a 0-4 scale with 0 signifying no neuronal damage and 4 indicating very severe damage. Criteria used in establishing the degree of neuronal damage included the extent of cytoplasmic swelling in the IPL and the number of neurons in the INL showing signs of severe cytoplasmic swelling and coarse clumping of nuclear chromatin. The highest NDS rating (4) is given when the IPL discloses apparent spongiform appearance due to dendritic swelling and when most cell bodies in the INL show severe cytoplasmic swelling and coarse clumping of nuclear chromatin. If the damage is of a lesser degree, a rating of 3 is given. NDS 2 is assigned when cell bodies in the INL are sporadically swollen. […] Fine dendritic swelling in a limited area of the IPL without damage in the INL is described by NDS 1.
NFLT, density of degenerated cells in the GCL, and NDS were determined as the measurement of 10 different areas from three eyes per experimental condition. These morphometrical parameters were assessed by three raters, who remained unaware of the experimental condition. […]

[4] = system: mouse model of Niemann-Pick Type C disease; conditions: cited from earlier work

Row | SMILES | autophagy [1] | RGC Survival (number of NeuN-positive cells), Average ([2]; Average of 5) [per square millimeter] | RGC Survival (number of NeuN-positive cells), individual areas 1-5 [2] | NDS (neuronal damage score) [3] | NDS, Average [3] | axonal swelling in the nerve fiber layer (NFL), light micrographs [3] | NFLT vs. RT (%) [3] [%] | Damaged cells in GCL [3] | NFLT, Average [3] [%] | Damaged cell, Average [3] | autophagy [4]
1 | CC(=O)[C@H]1CC[C@H]2[C@@H]3CC[C@H]4C[C@H](O)CC[C@]4(C)[C@H]3CC[C@]12C [AlloP, allopregnanolone] | activate autophagy | 2084.0 | 2220 per square millimeter and 2240 per square millimeter and 1860 per square millimeter and 2260 per square millimeter and 1840 per square millimeter | 0.2 ± 0.4 | 0.2 | attenuated | 1.5 ± 0.6 | 2.0 ± 1.7 per 250 μm of retina | 1.5 | 2.0 | activate autophagy
2 | CC(=O)[C@@H]1CC[C@@H]2[C@H]3CC[C@@H]4C[C@@H](O)CC[C@@]4(C)[C@@H]3CC[C@]21C [ent-AlloP, ent-allopregnanolone] |  |  | 2120 per square millimeter and 2280 per square millimeter and 2000 per square millimeter and 1840 per square millimeter and 1860 per square millimeter | 0.2 ± 0.4 | 0.2 | substantially inhibited | 1.6 ± 0.6 | 1.9 ± 1.2 per 250 μm of retina | 1.6 | 1.9 | 
